The supplement of paper PMC10307832

Assays:
Experiment in all cases: relative viability (nuclei count vs DMSO), 5 days (fraction); higher = more cells survive
[1] = compound: C[As](C)SC[C@H](NC(=O)CC[C@H](N)C(=O)O)C(=O)NCC(=O)O [Darinaparsin] + O=C(CCCCCCC(=O)Nc1ccccc1)NO [Vorinostat] (partner 1 µM)
Procedure, shortened: (§1)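 After 5 days of treatment, lung cancer cells in 1536-well plates were fixed and stained in a single step (final 0.05% Triton X-100, 1% formaldehyde, 1 ug/ml Hoechst) and their nuclei counted on 4× images. Treatment had been applied by pin tool the day after seeding as one drug alone or as a fixed anchor-drug dose with five library-drug doses (not always all listed) in √10 steps. Relative viability is the nuclei count of treated wells divided by that of vehicle wells, and values are medians of duplicate plates.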

[2] = compound: CC1=C(C=C(C=C1)NC(=O)C2=CC(=CC=C2)C(C)(C)C#N)NC3=CC4=C(C=C3)N=CN(C4=O)C [AZ628] + Cc1cc(Nc2cc(N3CCN(C)CC3)nc(Sc3ccc(NC(=O)C4CC4)cc3)n2)n[nH]1 [Tozasertib] (partner 0.1 µM)
Procedure, shortened: as §1

[3] = compound: C1CC2=C(C1)C=C(C=C2)OC3=NC(=C4C(=N3)N(C=N4)CC5=CC=C(C=C5)C6=CC=CC=C6)N[C@@H](CC7=CC=CC=C7)CO [QS11] + COc1cccc2cc(-c3nc([C@H]4CC[C@H](C(=O)O)CC4)n4ncnc(N)c34)[nH]c12 [OSI-027] (partner 0.5 µM)
Procedure, shortened: as §1

[4] = compound: C[As](C)SC[C@H](NC(=O)CC[C@H](N)C(=O)O)C(=O)NCC(=O)O [Darinaparsin] + C[C@@H](Oc1cc(-c2cnn(C3CCNCC3)c2)cnc1N)c1c(Cl)ccc(F)c1Cl [Crizotinib] (partner 1 µM)
Procedure, shortened: as §1

| Cell Line | relative viability ([1]; first compound 0.08 µM) | relative viability ([1]; first compound 0.8 µM) | relative viability ([1]; first compound 2.53 µM) | relative viability ([1]; first compound 8 µM) | relative viability ([2]; first compound 0.08 µM) | relative viability ([2]; first compound 0.253 µM) | relative viability ([2]; first compound 0.8 µM) | relative viability ([2]; first compound 2.53 µM) | relative viability ([2]; first compound 8 µM) | relative viability ([3]; first compound 0.08 µM) | relative viability ([3]; first compound 0.253 µM) | relative viability ([3]; first compound 0.8 µM) | relative viability ([3]; first compound 2.53 µM) | relative viability ([3]; first compound 8 µM) | relative viability ([4]; first compound 0.08 µM) | relative viability ([4]; first compound 0.8 µM) | relative viability ([4]; first compound 2.53 µM) | relative viability ([4]; first compound 8 µM) |
| --- | --- | --- | --- | --- | --- | --- | --- | --- | --- | --- | --- | --- | --- | --- | --- | --- | --- | --- |
| NCI-H441 | 1.15 | 0.751 | 0.847 | 0.884 | 0.647 | 0.613 | 0.676 | 0.556 | 0.445 | 0.614 | 0.619 | 0.76 | 0.566 | 0.548 | 0.956 | 0.729 | 0.676 | 0.701 |
| NCI-H460 | 1.35 | 0.831 | 0.569 | 1 | 0.449 | 0.186 | 0.146 | 0.382 | 0.053 | 0.719 | 0.756 | 0.663 | 0.446 | 0.257 |  | 0.91 | 0.607 | 1.56 |
| NCI-H520 | 0.737 | 0.723 | 0.735 | 0.785 | 0.407 | 0.453 | 0.365 | 0.422 | 0.412 | 0.196 | 0.265 | 0.297 | 0.175 | 0.268 | 0.873 | 0.759 | 0.515 | 0.924 |
| NCI-H596 | 0.543 | 0.632 | 0.576 | 0.543 | 0.768 | 0.827 | 0.956 | 0.886 | 0.848 | 0.715 | 0.688 | 0.679 | 0.66 | 0.732 | 1.08 | 0.999 | 0.765 | 0.982 |
| NCI-H647 | 0.608 | 0.751 | 0.539 | 0.572 | 0.293 | 0.262 | 0.296 | 0.269 | 0.146 | 0.585 | 0.64 | 0.596 | 0.642 | 0.732 | 1.66 | 1.1 | 1.16 | 1.6 |
| NCI-H650 | 0.335 | 0.408 | 0.427 | 0.423 | 0.855 | 0.713 | 0.722 | 0.789 | 0.446 | 0.513 | 0.513 | 0.548 | 0.483 | 0.456 | 0.861 | 0.574 | 0.683 | 0.899 |
| NCI-H661 | 0.86 | 0.729 | 0.753 | 0.858 | 0.365 | 0.409 | 0.365 | 0.376 | 0.42 | 0.696 | 0.75 | 0.69 | 0.618 | 0.549 | 1.08 | 1.11 | 0.929 | 1.1 |
| NCI-H727 | 1.24 | 1.14 | 1.16 | 1.36 | 0.551 | 0.316 | 0.32 | 0.404 | 0.274 | 0.576 | 0.708 | 0.579 | 0.404 | 0.461 | 0.713 | 0.786 | 0.77 | 0.988 |
